Experimental data taken from ChEMBL document CHEMBL4814073, “Ring-opening of five-membered heterocycles conjugated 4-isopropylresorcinol scaffold-based benzamides as HSP90 inhibitors suppressing tumor growth in vitro and in vivo” (Eur J Med Chem, 2021).
Activity calls are given as the source filed them. No cut-off for these calls is given here.

Key:
[1] = Metabolic stability in Sprague-Dawley rat hepatocytes assessed as Intrinsic clearance by LC-MS/MS analysis; type: ADME, cell-based, Hepatocyte
[2] = test system: A549; assay: Induction of apoptosis in human A549 cells assessed as increase in cleaved caspase 7 protein expression at 0.3 to 3 uM measured after 18 hrs by western blot analysis; type: functional, cell-based; settings: dose 0.3-3 µM
[3] = Half life in Sprague-Dawley rat at 2 mg/kg, iv measured after 1 hrs by LC-MS/MS analysis; type: ADME, organism-based; settings: in vivo
[4] = test system: A549; assay: Induction of cell cycle arrest in human A549 cells assessed as upregulation of cyclinB1 protein expression at 0.3 uM incubated for 24 hrs by Western blot analysis; type: functional, cell-based
[5] = AUC (0 to t) in Sprague-Dawley rat at 2 mg/kg, iv measured after 1 hrs by LC-MS/MS analysis; type: ADME, organism-based; parameters: route intravenous, time 1 hrs, dose 2 mg/kg; settings: in vivo
[6] = biological target: T1, CYP1A2 (Homo sapiens, UniProt P05177); assay: Inhibition of CYP1A2 in human liver microsomes using phenacetin as substrate at 50 uM by LC-MS/MS analysis; type: ADME; settings: probe phenacetin
T1 sequence (P05177 whole entry): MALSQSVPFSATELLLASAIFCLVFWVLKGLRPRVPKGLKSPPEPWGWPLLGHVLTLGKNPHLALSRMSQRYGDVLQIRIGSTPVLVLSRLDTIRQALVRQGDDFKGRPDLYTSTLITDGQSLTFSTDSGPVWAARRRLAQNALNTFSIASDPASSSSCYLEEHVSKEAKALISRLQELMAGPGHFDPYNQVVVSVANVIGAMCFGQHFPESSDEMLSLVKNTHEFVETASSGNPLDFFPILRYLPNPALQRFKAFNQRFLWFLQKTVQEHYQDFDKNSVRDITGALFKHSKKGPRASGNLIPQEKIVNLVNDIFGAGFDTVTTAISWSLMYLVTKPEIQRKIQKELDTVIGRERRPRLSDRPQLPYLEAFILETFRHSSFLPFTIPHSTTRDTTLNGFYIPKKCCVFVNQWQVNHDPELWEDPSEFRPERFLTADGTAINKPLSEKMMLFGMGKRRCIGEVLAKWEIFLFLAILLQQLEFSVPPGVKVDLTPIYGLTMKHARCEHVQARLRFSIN

[7] = test system: A549; assay: Induction of apoptosis in human A549 cells assessed as increase in PARP cleavage at 0.3 to 3 uM measured after 18 hrs by western blot analysis; type: functional, cell-based; settings: dose 0.3-3 µM
[8] = AUC (0 to infinity) in Sprague-Dawley rat at 20 mg/kg, po measured after 1 hrs by LC-MS/MS analysis; type: ADME, organism-based; parameters: route oral, time 1 hrs, dose 20 mg/kg; settings: in vivo
[9] = Hepatic clearance in human hepatocytes by LC-MS/MS analysis
[10] = biological target: T2, CYP2C8 (Homo sapiens, UniProt P10632); assay: Inhibition of CYP2C8 in human liver microsomes using amodiaquine as substrate at 50 uM by LC-MS/MS analysis; type: ADME; settings: probe amodiaquine
T2 sequence (P10632 whole entry): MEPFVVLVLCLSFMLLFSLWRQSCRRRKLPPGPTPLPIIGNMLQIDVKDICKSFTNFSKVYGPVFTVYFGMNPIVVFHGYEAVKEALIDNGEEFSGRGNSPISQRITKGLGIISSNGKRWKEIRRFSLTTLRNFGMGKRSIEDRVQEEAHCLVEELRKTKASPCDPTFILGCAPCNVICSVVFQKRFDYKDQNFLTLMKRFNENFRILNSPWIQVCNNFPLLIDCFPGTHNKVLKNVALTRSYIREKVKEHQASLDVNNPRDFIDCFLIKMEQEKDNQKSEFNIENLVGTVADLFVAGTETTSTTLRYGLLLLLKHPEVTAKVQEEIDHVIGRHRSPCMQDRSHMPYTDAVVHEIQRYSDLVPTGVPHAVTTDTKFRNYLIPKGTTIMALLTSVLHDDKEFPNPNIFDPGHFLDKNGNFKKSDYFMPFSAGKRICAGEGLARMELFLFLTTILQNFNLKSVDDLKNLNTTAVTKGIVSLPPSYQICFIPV

[11] = Metabolic stability in Sprague-Dawley rat hepatocytes assessed as half life by LC-MS/MS analysis; type: ADME, cell-based, Hepatocyte
[12] = biological target: T3, Heat shock protein HSP90 (Homo sapiens, UniProt P07900+P08238); assay: Inhibition of HSP90 in human A549 cells assessed as downregulation of Akt expression incubated for 24 hrs by immunoblot analysis; type: cell-based; settings: dose microM <=3, time 24.0 hrs
[13] = Clearance in Sprague-Dawley rat at 2 mg/kg, iv measured after 1 hrs by LC-MS/MS analysis; type: ADME, organism-based; settings: in vivo
[14] = test system: A549; assay: Induction of cell cycle arrest in human A549 cells assessed as M stage arrest by measuring upregulation of p-MPM-2 expression at 0.3 uM incubated for 24 hrs by Western blot analysis; type: functional, cell-based
[15] = test system: A549; assay: Induction of apoptosis in human A549 cells expressing wild type p53 assessed as caspase 3 cleavage at 0.3 uM incubated for 24 hrs by Western blot analysis; type: functional, cell-based
[16] = biological target: Cytochrome P450 2C19 (Homo sapiens, UniProt P33261); assay: Inhibition of CYP2C19 in human liver microsomes using S-mephenytoin as substrate by LC-MS/MS analysis; type: ADME
[17] = Cmax in Sprague-Dawley rat at 20 mg/kg, po measured after 1 hrs by LC-MS/MS analysis; type: ADME, organism-based; parameters: route oral, dose 20 mg/kg, time 1 hrs; settings: in vivo
[18] = Apparent permeability across basolateral to apical in human Caco2 cells by LC-MS/MS analysis; type: ADME, cell-based; settings: Caco-2, read-out: permeability
[19] = AUC (0 to infinity) in Sprague-Dawley rat at 2 mg/kg, iv measured after 1 hrs by LC-MS/MS analysis; type: ADME, organism-based; parameters: route intravenous, dose 2 mg/kg, time 1 hrs; settings: in vivo
[20] = AUC (0 to t) in Sprague-Dawley rat at 20 mg/kg, po measured after 1 hrs by LC-MS/MS analysis; type: ADME, organism-based; parameters: route oral, time 1 hrs, dose 20 mg/kg; settings: in vivo
[21] = Half life in Sprague-Dawley rat at 20 mg/kg, po measured after 1 hrs by LC-MS/MS analysis; type: ADME, organism-based; settings: in vivo
[22] = Metabolic stability in CD1 mouse hepatocytes assessed as half life by LC-MS/MS analysis; type: ADME, cell-based, Hepatocyte
[23] = biological target: T4, Cytochrome P450 2C8 (Homo sapiens, UniProt P10632); assay: Inhibition of CYP2C8 in human liver microsomes using amodiaquine as substrate by LC-MS/MS analysis; type: ADME
T4 sequence (P10632 whole entry): T2 sequence (P10632 whole entry)

[24] = biological target: T3, Heat shock protein HSP90; assay: Inhibition of HSP90 in human A549 cells assessed as downregulation of Akt expression at 3 uM by immunoblot analysis; type: cell-based; settings: time hrs <=24, TDE = time-dependent effect
[25] = Tmax in Sprague-Dawley rat at 20 mg/kg, po measured after 1 hrs by LC-MS/MS analysis; type: ADME, organism-based; settings: in vivo
[26] = test system: A549; assay: Induction of cell cycle arrest in human A549 cells assessed as increases in cdc2 expression at Thr161 at 0.3 uM incubated for 24 hrs by Western blot analysis; type: functional, cell-based
[27] = biological target: T3, Heat shock protein HSP90; assay: Inhibition of HSP90 in human A549 cells assessed as downregulation of FAK expression at 3 uM by immunoblot analysis; type: cell-based; settings: time hrs <=24, TDE = time-dependent effect
[28] = Toxicity in BALB/c mouse xenografted with human H1975 cells assessed as reduction in body weight at 25 to 50 mg/kg, po treated daily relative to control; settings: in vivo
[29] = test system: A549; assay: Inhibition of MAPK signaling pathway in human A549 cells at 3 uM incubated upto 24 hrs by immunoblot analysis; type: cell-based; settings: time hrs <=24, TDE = time-dependent effect

Chain of Cytochrome P450 2C19 (P33261 whole entry): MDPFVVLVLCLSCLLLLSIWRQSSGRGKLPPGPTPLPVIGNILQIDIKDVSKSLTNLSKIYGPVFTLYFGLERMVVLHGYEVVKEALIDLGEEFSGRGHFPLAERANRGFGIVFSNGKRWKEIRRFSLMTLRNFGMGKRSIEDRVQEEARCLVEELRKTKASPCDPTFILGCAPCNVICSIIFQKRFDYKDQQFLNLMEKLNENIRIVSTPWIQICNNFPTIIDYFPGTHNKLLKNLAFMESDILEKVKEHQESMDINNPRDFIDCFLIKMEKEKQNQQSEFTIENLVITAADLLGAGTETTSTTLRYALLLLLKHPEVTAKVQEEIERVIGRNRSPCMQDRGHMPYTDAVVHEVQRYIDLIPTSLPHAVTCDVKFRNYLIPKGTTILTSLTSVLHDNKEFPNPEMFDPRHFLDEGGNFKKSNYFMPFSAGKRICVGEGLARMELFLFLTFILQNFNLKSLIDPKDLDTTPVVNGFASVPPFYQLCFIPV

## CCN(C(=O)c1cc(C(C)C)c(O)cc1O)c1cccnc1
[1]
  CLint: 751 mL/min/kg
[2]
  Activity: Active
[3]
  half-life: 174 min
[4]
  Activity: Active
[5]
  AUCt: 487 ng·h/mL
[6]
  inhibition at 50 µM: 50.6%
[7]
  Activity: Active
[8]
  AUC: 811 ng·h/mL
[9]
  CLhep predicted: 14.7 mL/min/kg
[10]
  inhibition at 50 µM: 54.3%
[11]
  half-life: 11.2 min
[12]
  inhibition: Dose-Dependent Effect
[13]
  clearance: 73.2 mL/min/kg
[14]
  Activity: Active
[15]
  Activity: inactive
[16]
  IC50: 7.8 µM
[17]
  Cmax: 40.5 ng/mL
[18]
  Papp B→A: 30.6 ×10⁻⁶ cm/s
[19]
  AUC: 456 ng·h/mL
[20]
  AUCt: 737 ng·h/mL
[21]
  half-life: 984 min
[22]
  half-life: 5.31 min
[23]
  IC50: > 50 µM
[24]
  inhibition: Tde
[25]
  Tmax: 15 min
[26]
  Activity: Active
[27]
  inhibition: Tde
[28]
  Activity: Non-Toxic
[29]
  inhibition: Tde
